Data from PMC10619133, “The catechol moiety of obafluorin is essential for antibacterial activity” (RSC Chemical Biology, 2023).
≈ marks a conversion by molar mass, not a printed value. Entries after “also recorded” stand apart in the source; their conditions may differ. Like-named read-outs stand apart in the source and are kept apart here.

Tests used:
Streptococcus pyogenes = system: Streptococcus pyogenes; set-up: method as in doi:10.1021/jo00350a010; conditions: dosed systemically; cited from earlier work
E. coli NR698 = experiment: Spot-on-lawn MIC bioassay; format: cell-based; conditions: Escherichia coli, NR698
Description: (§1) Indicator strains were grown for 16–18 h in LB (5 mL) by inoculation from a single colony. An aliquot of the resulting culture (500 μL) was then used to inoculate LB (50 mL in 250 mL Erlenmeyer flasks), followed by orbital shaking at 250 rpm until they reached an OD600 of 0.3–0.4. These cultures were then diluted 1 : 10 with molten soft nutrient agar (SNA), before pouring into appropriately sized Petri dishes to set. Serial dilutions of the test compounds (from 256 μg mL^−1 to 1 μg mL^−1 plus an additional sample at 1000 μg mL^−1) were prepared in acetonitrile (ACN), and 4 μL of each sample was applied directly onto the SNA surface. Kanamycin (50 μg mL^−1), apramycin (50 μg mL^−1) or aureobasidin A (0.2 μg mL^−1) were used as positive controls, as appropriate, and ACN or water (4 μL) were used as negative controls. […] Experiments were carried out in at least triplicate for each strain.

ObaO = experiment: Aminoacylation assay; format: biochemical, P. fluorescens
Description: (§2) To measure the effects of 1–4 on ThrRS canonical tRNA charging activity, an assay modified from that reported by Ruan et al.[53] was used, where active enzyme was incubated with its necessary substrates and its activity measured using ^14C labeled Thr and a liquid scintillation counter. Purified ThrRS protein (10 nM) was pre-incubated with varying concentrations of compounds 1–4 or ACN for 10 min. After pre-incubation, ThrRS samples were added to a master reaction mixture with the final component concentrations of HEPES (100 mM, pH 7.0), ATP (4 mM), MgCl2 (10 mM), L-[U-^14C]threonine (50 μM, Moravek Inc.), and tRNA^Thr (5 μM). This mixture was incubated at room temperature for 10 min, with samples taken at 1, 2.5, 5, and 10 min. At each time point, a 7 μL aliquot was spotted onto a 5% trichloroacetic acid (TCA) presoaked 3 MM Whatman paper (Cytiva) squares (repeated in triplicate). After allowing the spots to dry, the Whatman paper was washed three times with 5% TCA, and once with 95% EtOH. The Whatman paper was dried and the counts on each square of paper analyzed using a Tri-Carb 2910 TR liquid scintillation counter using Hydrofluor Liquid Scintillation Fluid (National Diagnostics). To calculate IC50 values, fractional initial velocities (velocity of inhibited reaction/velocity in the absence of inhibitor) were plotted against the log of 1 concentration and then fitted to eqn (1), using GraphPad Prism.1 [drawing 1]

PfThrRS = PfThrRS (Pseudomonas fluorescens, UniProt C3JZN7); experiment: Aminoacylation assay; format: biochemical, P. fluorescens; conditions: enzyme 10 nM; read-out: concentration of full inhibition
Chain of PfThrRS (C3JZN7 whole entry): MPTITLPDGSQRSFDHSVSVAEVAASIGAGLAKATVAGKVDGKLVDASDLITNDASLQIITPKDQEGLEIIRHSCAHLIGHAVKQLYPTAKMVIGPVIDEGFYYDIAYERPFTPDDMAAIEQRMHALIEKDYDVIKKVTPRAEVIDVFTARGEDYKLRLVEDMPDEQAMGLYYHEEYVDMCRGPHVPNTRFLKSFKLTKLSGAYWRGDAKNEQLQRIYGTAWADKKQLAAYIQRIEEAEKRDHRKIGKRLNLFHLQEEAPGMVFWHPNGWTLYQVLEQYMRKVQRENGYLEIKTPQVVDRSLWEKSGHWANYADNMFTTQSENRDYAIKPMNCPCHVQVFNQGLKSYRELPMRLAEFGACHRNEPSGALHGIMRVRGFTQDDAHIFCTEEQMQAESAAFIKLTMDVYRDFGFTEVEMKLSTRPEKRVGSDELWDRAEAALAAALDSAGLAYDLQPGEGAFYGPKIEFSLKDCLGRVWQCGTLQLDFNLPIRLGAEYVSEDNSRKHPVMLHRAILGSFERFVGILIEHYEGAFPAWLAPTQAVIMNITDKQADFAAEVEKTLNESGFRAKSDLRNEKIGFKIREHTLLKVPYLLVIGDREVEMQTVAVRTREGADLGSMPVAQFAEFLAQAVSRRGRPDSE
Description: as §2

E. coli BW25113 = experiment: Spot-on-lawn MIC bioassay; format: cell-based; conditions: for MIC: Escherichia coli
Description: as §1
(§3) The method was the same as for the antibacterial MIC assays described above, with the following modifications: for excess iron, Fe(NO3)3·9H2O stock (400 mM) was added to give a final concentration of 1.5 or 2.0 mM; for iron depletion, bipy stock (1 M) was added to give a final concentration of 150 μM. For MRSA, 1 was further diluted to 0.5 0.25 and 0.125 μg mL^−1 due to a decrease in MIC under excess iron conditions. The general effect of excess iron on the activity of alternative antibiotics was determined by performing a similar serial dilution of carbenicillin, kanamycin, streptomycin, nitrofurantoin and chloramphenicol in the presence of Fe^3+.

P. aeruginosa PA01 = experiment: Spot-on-lawn MIC bioassay; format: cell-based; conditions: for MIC: Pseudomonas aeruginosa
Description: as §1, §3

EcThrRS = target: T1, EcThrRS (Escherichia coli, UniProt P0A8M3); experiment: Aminoacylation assay; format: biochemical, E. coli; conditions: enzyme 10 nM
T1 construct: His6 (N); made in house; host or cells: E. coli NiCo21(DE3)
T1 sequence (P0A8M3 whole entry): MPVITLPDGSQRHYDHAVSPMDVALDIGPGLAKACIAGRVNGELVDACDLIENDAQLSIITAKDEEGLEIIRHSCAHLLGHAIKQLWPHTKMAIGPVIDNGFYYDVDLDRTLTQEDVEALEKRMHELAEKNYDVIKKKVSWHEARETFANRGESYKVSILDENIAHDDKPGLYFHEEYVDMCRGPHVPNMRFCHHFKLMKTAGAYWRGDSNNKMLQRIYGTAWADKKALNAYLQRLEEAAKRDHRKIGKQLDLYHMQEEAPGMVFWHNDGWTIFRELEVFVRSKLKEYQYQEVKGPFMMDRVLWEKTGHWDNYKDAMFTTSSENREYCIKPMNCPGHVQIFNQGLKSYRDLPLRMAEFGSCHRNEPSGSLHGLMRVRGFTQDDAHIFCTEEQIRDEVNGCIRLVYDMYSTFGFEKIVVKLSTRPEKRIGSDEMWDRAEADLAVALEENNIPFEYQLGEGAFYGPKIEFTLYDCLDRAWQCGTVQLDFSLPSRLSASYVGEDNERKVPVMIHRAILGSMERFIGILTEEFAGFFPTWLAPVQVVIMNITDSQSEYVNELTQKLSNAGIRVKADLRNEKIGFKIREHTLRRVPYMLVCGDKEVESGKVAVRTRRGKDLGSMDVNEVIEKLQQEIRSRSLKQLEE
Description: as §2

E. coli 25922 = experiment: Spot-on-lawn MIC bioassay; format: cell-based, E. coli ATCC 25922
Description: as §1, §3

B. subtilis = experiment: Spot-on-lawn MIC bioassay; format: cell-based, B. subtilis EC 1524; conditions: Bacillus subtilis, standard conditions, read-out: MIC
Description: as §1

[1] = with vs without Fe^3+ in growth agar

Question: Which “protection of infected mice (in words)” value (Streptococcus pyogenes) does the source give for `O=C(N[C@@H]1C(=O)O[C@@H]1Cc1ccc([N+](=O)[O-])cc1)c1cccc(O)c1O` [compound 1, Obafluorin] here?
Answer: can protect mice

Question: And the “toxicity in mice (in words)” value (Streptococcus pyogenes)?
Answer: no observable toxicity

Question: What about the MIC (E. coli NR698) of the same molecule?
Answer: 4 µg/mL (≈ 11.2 µM)

Question: What about the “inhibition of aminoacylation (in words)” value (ObaO; 0–5 μM (up to 5000 nM)) of the same molecule?
Answer: no observable inhibition; also recorded: no significant inhibition

Question: And the IC50 (ObaO; enzyme 10 nM, 10 min preincubation, 0–5 μM compound)?
Answer: not inhibited; also recorded: No inhibition

Question: And the IC100 (PfThrRS)?
Answer: 0.01 µM

Question: And the MIC (E. coli BW25113; BW25113, iron depleted, +bipy (150 μM))?
Answer: 256 µg/mL (≈ 714 µM)

Question: And the MIC (E. coli BW25113; BW25113, iron replete, +Fe^3+ (2 mM), read-out: MIC)?
Answer: ≤ 1 µg/mL

Question: And the MIC (E. coli BW25113; BW25113, standard conditions)?
Answer: 256 µg/mL (≈ 714 µM)

Question: What about the “decrease in MIC upon addition of Fe^3+” value (E. coli BW25113; with vs without Fe^3+) of the same molecule?
Answer: ≥ 256 fold

Question: What about the MIC (P. aeruginosa PA01; PA01, +Fe^3+ (1.5 mM) in the media) of the same molecule?
Answer: ≤ 1 µg/mL

Question: What about the MIC (P. aeruginosa PA01; PA01, spot-on-lawn, standard conditions) of the same molecule?
Answer: 128 µg/mL (≈ 357 µM)

Question: And the “decrease in MIC with added Fe^3+” value (P. aeruginosa PA01; [1])?
Answer: ≥ 128 fold

Question: What about the “concentration at which complete inhibition was observed” value (EcThrRS) of the same molecule?
Answer: around 100 nM

Question: And the IC50 (EcThrRS; 10 min preincubation with compound, read-out: IC50)?
Answer: 35 ± 4 nM

Question: What about the MIC (E. coli 25922; Escherichia coli, 25922, iron depleted, +bipy (150 μM)) of the same molecule?
Answer: 256 µg/mL (≈ 714 µM)

Question: And the MIC (E. coli 25922; Escherichia coli, 25922, +Fe^3+ (2 mM) in the media, read-out: MIC)?
Answer: ≤ 1 µg/mL

Question: And the MIC (E. coli 25922; Escherichia coli, 25922, spot-on-lawn, standard conditions)?
Answer: 256 µg/mL (≈ 714 µM)

Question: What about the “decrease in MIC with added Fe^3+” value (E. coli 25922; [1]) of the same molecule?
Answer: ≥ 256 fold

Question: And the MIC (B. subtilis)?
Answer: 4 µg/mL (≈ 11.2 µM)
